Values quoted from earlier work as cited in patent EP0661967B1, “COMBINED VIRUSTATIC ANTIMEDIATOR (COVAM) TREATMENT OF COMMON COLDS” (UNIVERSITY OF VIRGINIA PATENT FOUNDATION, priority 1991, dated 1993).

Columns and labels:
rhinovirus [1] = details: in vivo
rhinovirus [2] = system: rhinovirus

| SMILES | effect on nasal symptoms and nasal mucus production (rhinovirus [1]) | mean total symptom scores during four days of treatment (rhinovirus [1]) | mean total symptoms score lower than that for the group receiving placebo (rhinovirus [2]; four days of treatment) | mean total symptoms score during the four days of treatment (rhinovirus [2]; loading dose 400 or 500 mg, then 200 or 500 mg three times a day for five days, begun 6 hours after virus challenge, placebo 17.35±2.6, p=0.08) | headache, malais, myalgia, and cough (rhinovirus [2]; treated group versus placebo) |
| --- | --- | --- | --- | --- | --- |
| CC(C)[N+]1(C)[C@@H]2CC[C@H]1C[C@@H](OC(=O)C(CO)c1ccccc1)C2 (some centres unmarked) [ipratropium] | mild beneficial effect | 10±1.6 |  |  |  |
| COc1ccc2cc([C@H](C)C(=O)O)ccc2c1 [naproxen] |  |  | thirty four | 12±1.65 | significantly reduced |
